# Reference: patent US11951105B2 (Lake O'Hara LLC, priority 2020, dated 2024)
# Key:
# [1] = cited from earlier work
# CYP2D6 = conditions: cited from earlier work
# CYP3A4 = CYP3A4 (Homo sapiens, UniProt P08684); conditions: based on the literature; cited from earlier work
# [2] = PBPK modeling of schizophrenia patients treated according to modified dosing regimens; design: species or system human; conditions: for Days Reduced to Reach Pharmacokinetic Endpoints: EC80 / Days Reduced to Reach Pharmacokinetic Endpoints: Steady State: modified regimen of Table F vs FDA label, Obese
# Excerpt: In order to simulate brexpiprazole under various conditions, a whole-body PBPK model was constructed to capture the drug's kinetics in major tissues. Model tissue compartments included adipose, bone, brain, large intestine, small intestine, heart, kidney, liver, lung, muscle, spleen, stomach, and skin tissues, as well as venous and arterial blood compartments. In order to accurately capture first-pass clearance effects on the drug, the model also included correct representation of the gastrointestinal tract organs and the liver. […] Drug distribution into each tissue compartment was modeled assuming perfusion-limited kinetics, with partitioning into tissue described by a partition coefficient (Kp) estimated using methods described by Poulin and Theil (2002). Brexpiprazole-specific biochemical parameters such as the log of octanol:water partition coefficient (log P), negative log acid dissociation constant (pKa), fraction unbound in the plasma (fup), blood:plasma concentration ratio (BP), and clearance were obtained from literature; additional physiochemical properties used to calculate Kps were obtained via DrugBank. […] Simulations were carried out in a virtual population of 500 normal-weight and 500 obese individuals with age- and sex-specific physiological parameters (i.e. tissue flows and volumes) sampled from the National Health and Nutrition Examination Survey (NHANES) dataset.
# PBPK Modeling of Schizophrenia Patients Treated with Higher Doses According to Modified Methods
# A modified dosing regimen was developed so that obese and CYP2D6 PM patients reach therapeutic levels earlier (Table F). […] On day 8, patients returned to administering the recommended dose once daily. […] On day 15, patients returned to administering the recommended dose once daily.
# [3] = brexpiprazole patients; cited from earlier work
# CYP3A4, sequence (P08684 whole entry): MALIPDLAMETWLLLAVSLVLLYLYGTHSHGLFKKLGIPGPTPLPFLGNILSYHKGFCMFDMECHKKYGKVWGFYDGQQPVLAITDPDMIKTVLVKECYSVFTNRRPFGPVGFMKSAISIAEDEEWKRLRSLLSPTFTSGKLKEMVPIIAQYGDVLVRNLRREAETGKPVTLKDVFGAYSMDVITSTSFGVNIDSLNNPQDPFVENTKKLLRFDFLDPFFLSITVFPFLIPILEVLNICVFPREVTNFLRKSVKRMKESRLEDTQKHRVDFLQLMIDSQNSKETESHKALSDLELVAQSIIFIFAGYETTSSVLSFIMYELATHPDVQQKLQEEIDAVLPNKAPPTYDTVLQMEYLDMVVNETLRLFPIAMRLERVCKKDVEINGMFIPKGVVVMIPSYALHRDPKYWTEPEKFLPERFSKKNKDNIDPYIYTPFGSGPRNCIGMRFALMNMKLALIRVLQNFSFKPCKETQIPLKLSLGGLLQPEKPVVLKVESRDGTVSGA
structure (smiles),measurement,setting,value
"O=c1ccc2ccc(OCCCCN3CCN(c4cccc5sccc45)CC3)cc2[nH]1 [brexpiprazole, 7-{4-[4-(1-Benzothiophen-4-yl)piperazin-1-yl]butoxy}quinolin-2(1H)-one]",share of brexpiprazole clearance due to other routes,[1]; based on the literature,10%
same,effect of weight on the pharmacokinetics of brexpiprazole,[1]; previous studies,less than 20%
same,renal clearance,"[1]; share of clearance, model assumption",~1%
same,decrease of baseline clearance by CYP2D6 PM status,CYP2D6; CYP2D6 poor metabolizers,~30%
same,share of brexpiprazole clearance due to CYP2D6,CYP2D6; based on the literature,43.3%
same,share of brexpiprazole clearance due to CYP3A4,CYP3A4,46.7%
same,Days Reduced to Reach Pharmacokinetic Endpoints: EC80,[2]; CYP2D6 EM,3 days
same,Days Reduced to Reach Pharmacokinetic Endpoints: Steady State,[2]; CYP2D6 EM,-4 days
same,Days Reduced to Reach Pharmacokinetic Endpoints: EC80,[2]; CYP2D6 PM,5 days
same,Days Reduced to Reach Pharmacokinetic Endpoints: Steady State,[2]; CYP2D6 PM,-29 days
same,days faster to reach therapeutic concentrations than once daily dosing,"[2]; schizophrenia, normal-weight CYP2D6 PM, Modified Dosing Regimen 3",three
same,days faster to reach therapeutic concentrations than with FDA label dosing,"[2]; schizophrenia, obese CYP2D6 EM, twice the daily doses for the first 7 days (Regimen 1)",three
same,days faster to reach therapeutic concentrations than once daily dosing,"[2]; schizophrenia, obese CYP2D6 PM, twice the daily doses for the first 14 days (Regimen 2)",five
same,akathisia rates,[3],dose-dependent
